From patent publication US8658801B2, “Pesticides containing a bicyclic bisamide structure” (Syngenta Crop Protection, LLC, priority 2006, dated 2014)
Blank lines part the entries; values can stand above or below the compound they belong to.

Experiments:
[1] = test system: Heliothis virescens; experiment: Example B15: comparison with state of the art, Heliothis virescens ovo-larvicide test; format: in vivo
Protocol: Activity Against Heliothis virescens (Ovo-Larvicide Test)
(§1) Eggs (0-24 h old) are placed in 24-well microtiter plate on artificial diet and treated with test solutions by pipetting. After an incubation period of 4 days, samples are checked for egg mortality, larval mortality, and growth regulation.

[2] = test system: Heliothis virescens (Tobacco Budworm); experiment: Example B2: activity against Heliothis virescens, ovo-larvicide, feeding/contact, curative; format: in vivo; details: 96 h, 4 days incubation, eggs 0-24 h old
Protocol: Activity Against Heliothis virescens (Tobacco Budworm)
(Ovo-Larvicide, Feeding/Contact Activity, Curative)
as §1

[3] = test system: Diabrotica balteata (Corn Root Worm); experiment: Example B4: Diabrotica balteata, larvicide, feeding/residual contact, preventive; format: in vivo; details: 120 h, 5 days incubation, L2 larvae
How it was run: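 Artificial diet treated with test solution, dried, then infested with 6-10 L2 larvae per well. Larval mortality, antifeedant effect and growth regulation checked after 5 days of incubation.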

[4] = test system: Plutella xylostella (Diamond Back Moth); experiment: Example B14: comparison with state of the art, Plutella xylostella, larvicide, feeding/residual contact, preventive; format: in vivo
Protocol: Plutella xylostella (Diamond Back Moth)
(Larvicide, Feeding/Residual Contact Activity, Preventive)
24-well microtiter plate (MTP) with artificial diet is treated with test solutions by pipetting. After drying, the MTP's are infested with larvae (L2)(10-15 per well). After an incubation period of 5 days, samples are checked for larval mortality, antifeedant and growth regulation.

[5] = test system: Plutella xylostella (Diamond Back Moth); experiment: Example B3: Plutella xylostella, larvicide, feeding/residual contact, preventive (artificial diet MTP); format: in vivo; details: 120 h, 5 days incubation, L2 larvae
How it was run: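 Artificial diet in multiwell plates treated with test solution, dried, then infested with 10–15 L2 larvae per well. After 5 days, larval mortality, antifeedant effect and growth regulation were scored.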

[6] = especially at 12.5, 3.1 and 0.8 ppm

SMILES: Cc1cc2cn[nH]c2c(C(=O)NC2(C3CC3)CC2)c1NC(=O)c1cc(C(F)F)nn1-c1ncccc1Cl
melting point: 224 to 227 °C

SMILES: C#Cc1cc2cn[nH]c2c(C(=O)NC(C)C)c1NC(=O)c1cc(C(F)(F)F)nn1-c1ncccc1Cl [Example 34, 6-{[2-(3-chloro-pyridin-2-yl)-5-trifluoromethyl-2H-pyrazole-3-carbonyl]-amino}-5-ethynyl-1H-indazole-7-carboxylic acid isopropylamide]
melting point: 226 to 229 °C

SMILES: CNC(=O)c1c(NC(=O)c2cc(C(F)(F)F)nn2-c2ncccc2Cl)ccc2ncccc12 [Example 46, 6-{[2-(3-chloro-pyridin-2-yl)-5-trifluoromethyl-2H-pyrazole-3-carbonyl]-amino}-quinoline-5-carboxylic acid methylamide]
melting point: 210 to 211 °C

SMILES: Cc1cc2ncccc2c(C(=O)NC(C)C)c1NC(=O)c1cc(C(F)(F)F)nn1-c1ncccc1Cl [P.78, 6-{[2-(3-chloro-pyridin-2-yl)-5-trifluoromethyl-2H-pyrazole-3-carbonyl]-amino}-7-methyl-quinoline-5-carboxylic acid isopropylamide]
inhibition at 0.8 ppm ([1]; Heliothis virescens, 96 h, 0.8 ppm, read-out: Ovo-larvicidal activity (%) after 4 days): 50% | inhibition at 3.1 ppm ([1]; Heliothis virescens, 96 h, 3.1 ppm, read-out: Ovo-larvicidal activity (%) after 4 days): 50% | inhibition at 12.5 ppm ([1]; Heliothis virescens, 96 h, 12.5 ppm, read-out: Ovo-larvicidal activity (%) after 4 days): 80% | inhibition at 50 ppm ([1]; Heliothis virescens, 96 h, 50 ppm, read-out: Ovo-larvicidal activity (%) after 4 days): 80% | insecticidal action compared with the compound from the state of the art (T81.3) [1, 6]: substantially better insecticidal action | pest or weed control at 400 ppm [2]: > 80% | pest or weed control at 400 ppm [3]: > 80% | Death rate (%) after 5 days ([4]; 0.8 ppm): 50% | Death rate (%) after 5 days ([4]; 3.1 ppm): 100% | Death rate (%) after 5 days ([4]; 12.5 ppm): 100% | Death rate (%) after 5 days ([4]; 50 ppm): 100% | insecticidal action compared with the compound from the state of the art (T81.3) [4, 6]: substantially better insecticidal action | pest or weed control at 400 ppm [5]: > 80%

Now from value to compound:

melting point: 225 to 226 °C
SMILES: CC(C)NC(=O)c1c(NC(=O)c2cc(C(F)(F)F)nn2-c2ncccc2Cl)ccc2cccnc12 [P.73, 7-{[2-(3-chloro-pyridin-2-yl)-5-trifluoromethyl-2H-pyrazole-3-carbonyl]-amino}-quinoline-8-carboxylic acid isopropylamide]

melting point: 233 to 236 °C
SMILES: C#Cc1cc2cn[nH]c2c(C(=O)NC(C)C)c1NC(=O)c1cc(C(F)F)nn1-c1ncccc1Cl [P.80]

melting point: 218 to 221 °C
SMILES: C#Cc1cc2cn[nH]c2c(C(=O)NC2(C3CC3)CC2)c1NC(=O)c1cc(C(F)F)nn1-c1ncccc1Cl [P.81]
